This assay is described as follows: Inhibition of Cryptosporidium hominis dihydrofolate reductase expressed in Escherichia coli by spectrophotometry.

The molecule `COc1cc(-c2c(C)cccc2C)cc(C(C)C#Cc2c(C)nc(N)nc2N)c1` (racemic) displayed a concentration for half-maximal inhibition (IC50) of 2.1 nM.

`COc1cc(C(C)C#Cc2c(C)nc(N)nc2N)ccc1-c1c(C(C)C)cccc1C(C)C` (racemic) displayed an IC50 of 16 nM.

Usually IC50 stands for the concentration at which inhibition is half-maximal. Higher therefore signals lower potency.

Values taken from ChEMBL document CHEMBL1142493, “Structure-based approach to the development of potent and selective inhibitors of dihydrofolate reductase from cryptosporidium” (J Med Chem, 2008).
